Results on eleven compounds are retold here after patent US20130005743A1, “New positive allosteric modulators of nicotinic acetylcholine receptor” (H. Lundbeck A/S, priority 2011, published 2013).

One may read the melting point as the temperature, or range, at which the solid turns liquid. What is called EC50 is the concentration that produces a half-maximal response.

The target in one data set is T1, human α7 receptor (Homo sapiens, UniProt P36544).
T1 construct: host or cells: rat GH4C1 cell line
Description: α7 NNR flux assay (FDSS Ca assay, positive allosteric modulation of acetylcholine response). It counts as cell-based. The conditions noted are these: human α7 receptor stably expressed in rat GH4C1 cells; acetylcholine 20 μM; % modulation relative to PNU-120596 set to 100%. The protocol:
The nicotinic acetylcholine receptor α7 is a calcium-permeable ion channel, whose activity can be measured by over expression in mammalian cells or oocytes. In this version of the assay, the human α7 receptor is stably expressed in the rat GH4C1 cell line. The assay was used to identify positive allosteric modulators (PAMs) of the α7 receptor. Activation of the channel was measured by loading cells with the calcium-sensitive fluorescent dye. Calcium-4 (Assay kit from Molecular Devices), and then measuring real-time changes, in fluorescence upon treatment with test compounds.
The cell line ChanClone GH4C1-nAChRalpha7 from Genionics was seeded from frozen stock in 384-well plates in culture media 2-3 days before experiment to form an approximately 80% confluent layer on the day of experiment.
The cell culture were split into “22.5 cm×22.5 cm”-plates with approximately 100×10^3 cells/cm^2. After four days incubation in a humidified incubator at 37° C. and 5% CO2, it had grown to an 80-90% confluent layer, and the cells were harvested.
Two or three days before the experiment the cells were seeded in 384 well plates from Greiner bio-one (781946, CELLCOAT, Poly-D-Lysine, black, μClear).
The cells were seeded in 384 well plates with 30 μL/well (30000 cells/well) while stirring the cell suspension or otherwise preventing the cells from precipitating.
The loading buffer was 5% v/v Calcium-4 Kit and 2.5 mM Probenecid in assay buffer.
Culture media was removed from the cell plates and 20 μL loading buffer was added in each well. The cell plates were placed in trays and incubated 90 minutes in the incubator (37° C.). Thereafter the plates were incubated 30 minutes at room temperature, still protected from light.
The assay buffer was HBSS with 20 mM HEPES, pH 7.4 and 3 mM CaCl2.
[…] 10 mM compound solution in DMSO was diluted in 50 μL assay buffer. The final test concentrations in the cell plates were 20-10-5-2.5-1.25-0.625-0.312-0.156-0.078-0.039 μM. Assay buffer and 3 μM PNU-120596 were used for control. The agonist acetylcholine was added to a final concentration of 20 μM (˜EC100). In the FDSS7000 the Ex480-Em540 was measured with 1 second intervals. The baseline was made of 5 frames before addition of test compounds, and 95 frames more were made before addition of acetylcholine. The measurement stopped 30 frames after the 2nd addition. Raw data for each well were collected as “the maximum fluorescence count” in the interval 100-131 seconds and as “the average fluorescence count” in the interval 96-100 seconds. The positive allosteric modulation in the 2nd addition was the enhancement of agonist response with test compound compared to agonist alone.
Results were calculated as % modulation of test compound compared to the reference PNU-120596 set to 100%.

The subject of a further data set is α7 nACh receptors. Put plainly: α7 NNR oocyte assay (electrophysiological recordings in Xenopus oocytes). It counts as cell-based, human or rat. The conditions noted are these: compound at 10 μM co-applied with ACh (30 μM), fold modulation of the control response; for Fold modulation, peak: peak response; for Fold modulation, AUC: total charge (AUC). The protocol:
Expression of α7 nACh Receptors in Xenopus Oocytes.
Oocytes were surgically removed from mature female Xenepus laevis anaesthetized in 0.4% MS-222 for 10-15 min. The oocytes were then digested at room temperature for 2-3 hours with 0.5 mg/mL collagenase (type IA Sigma-Aldrich) in OR2 buffer (82.5 mM NaCl, 2.0 mM KCl, 1.0 mM MgCl2 and 5.0 mM HEPES, pH 7.6). Oocytes avoid of the follicle layer were selected and incubated for 24 hours in Modified Barth's Saline buffer (88 mM NaCl, 1 mM KCl, 15 mM HEPES, 2.4 mM NaHCO3, 0.41 mM CaCl2, 0.82 mM MgSO4, 0.3 mM Ca(NO3)2) supplemented with 2 mM sodium pyruvate, 0.1 U/l penicillin and 0.1 μg/1 streptomycin. Stage 1V oocytes were identified and injected with 4.2-48 nl of nuclease free water containing 0.1-1.2 ng of cRNA coding for human α7 nACh receptors or 3.0-32 ng of cRNA coding for rat α7 nACh receptors and incubated at 18° C. for 1-10 days when they were used for electrophysiological recordings.
Electrophysiological Recordings of α7 nACh Receptors Expressed in Oocytes.
Oocytes were used for electrophysiological recordings 1-10 days after injection. Oocytes were placed in a 1 mL bath and perfused with Ringer buffer (115 mM NaCl, 2.5 mM KCl, 10 mM HEPES, 1.8 mM CaCl2, 0.1 mM MgCl2, pH 7.5)'. Cells were impaled with agar plugged 0.2-1 MΩ electrodes containing 3 M KCl and voltage clamped at −90 mV by a GeneClamp 500B amplifier. The experiments were performed at room temperature. Oocytes were continuously perfused with Ringer buffer and the drugs were applied in the perfusate. ACh (30 μM) applied for 30 sec were used as the standard agonist for activation of the α7 nACh receptors. In the standard screening set-up the new test compound (10 μM or 30 μM) were applied for 1 min of pre-application allowing for evaluation of agonistic activity followed by 30 sec of co-application with ACh (30 μM) allowing for evaluation of PAM activity. The response of co-application was compared to the agonistic response obtained with ACh alone. The drug induced effects on both the peak response and the total charge (AUC) response were calculated thus giving the effect of drug induced PAM activity as fold modulation of the control response. Table 2 indicates fold modulation of compounds No. 21, 22, 24, 34, 35 and 36 at determined at 10 μM.
For more elaborate studies doses-response curves can be performed for evaluation of max-fold modulation and EC50 values for both peak and AUC responses.

T1 sequence (P36544 23-502): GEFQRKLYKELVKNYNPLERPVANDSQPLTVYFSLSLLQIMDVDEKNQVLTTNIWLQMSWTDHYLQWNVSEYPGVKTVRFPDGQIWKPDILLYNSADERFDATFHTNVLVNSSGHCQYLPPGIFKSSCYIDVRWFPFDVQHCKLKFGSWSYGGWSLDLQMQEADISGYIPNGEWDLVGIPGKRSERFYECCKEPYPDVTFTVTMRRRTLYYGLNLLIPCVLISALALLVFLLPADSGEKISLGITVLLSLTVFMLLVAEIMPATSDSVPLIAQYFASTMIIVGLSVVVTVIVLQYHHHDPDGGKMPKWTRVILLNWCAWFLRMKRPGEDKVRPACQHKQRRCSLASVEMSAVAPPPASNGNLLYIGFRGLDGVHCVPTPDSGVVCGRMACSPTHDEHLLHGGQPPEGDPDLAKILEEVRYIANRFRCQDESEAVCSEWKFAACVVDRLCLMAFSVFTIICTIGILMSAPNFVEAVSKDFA

On to `COc1ccc(-n2nc(C)c3c(C(=O)Nc4c(C)ccnc4C)cc(C)nc32)cc1` [Compound 1, 1-(4-Methoxy-phenyl)-3,6-dimethyl-1H-pyrazolo[3,4-b]pyridine-4-carboxylic acid (2,4-dimethyl-pyridin-3-yl)-amide], for which the melting point lay within 224 to 227 °C. For the same compound, at human α7 receptor, the response was half-maximal at 3.9 µM (EC50).
In turn, `Cc1cc(C(=O)Nc2c(C)ccnc2C)c2c(C)nn(-c3ccc(S(N)(=O)=O)cc3)c2n1` [Compound 21, 3,6-Dimethyl-1-(4-sulfamoyl-phenyl)-1H-pyrazolo[3,4-b]pyridine-4-carboxylic acid (2,4-dimethyl-pyridin-3-yl)-amide] came in with an EC50 at human α7 receptor of at least 20 µM. In the data set on α7 nACh receptors, the “Fold modulation, peak” value amounted to 1.7 and the “Fold modulation, AUC” value was determined as 1.7.
On human α7 receptor, `Cc1cc(C(=O)Nc2c(C)ccnc2C)c2c(C)nn(-c3ccc(C(F)(F)F)cc3)c2n1` [Compound 22, 3,6-Dimethyl-1-(4-trifluoromethyl-phenyl)-1H-pyrazolo[3,4-b]pyridine-4-carboxylic acid (2,4-dimethyl-pyridin-3-yl)-amide] displayed an EC50 of at least 20 µM. In addition, in the data set with α7 nACh receptors, the “Fold modulation, peak” value worked out at 8.1 and the “Fold modulation, AUC” value worked out at 3.2.
On human α7 receptor, `COc1ccc(-n2nc(OC)c3c(C(=O)Nc4c(C)ccnc4C)cc(C)nc32)cc1` [Compound 24, 3-Methoxy-1-(4-methoxy-phenyl)-6-methyl-1H-pyrazolo[3,4-b]pyridine-4-carboxylic acid (2,4-dimethyl-pyridin-3-yl)-amide] gave an EC50 of at least 20 µM. In the data set on α7 nACh receptors, the “Fold modulation, peak” value is on record as 5.1 and the “Fold modulation, AUC” value came out at 2.5.
Regarding `COc1nccc(C)c1NC(=O)c1cc(C)nc2c1c(C)nn2-c1ccccc1` [Compound 27, 3,6-Dimethyl-1-phenyl-1H-pyrazolo[3,4-b]pyridine-4-carboxylic acid (2-methoxy-4-methyl-pyridin-3-yl)-amide], the melting point is 172 to 174 °C. On human α7 receptor, the EC50 stood at 5 µM.
As for `COc1cc(C)ncc1NC(=O)c1cc(C)nc2c1c(C)nn2-c1ccccc1` [Compound 29, 3,6-Dimethyl-1-phenyl-1H-pyrazolo[3,4-b]pyridine-4-carboxylic acid (4-methoxy-6-methyl-pyridin-3-yl)-amide], the melting point fell in the range of 206 to 207 °C. This compound showed an EC50 at human α7 receptor of 5.1 µM.
As to `Cc1cc(C(=O)Nc2cccnc2C)c2c(C)nn(-c3ccccc3)c2n1` [Compound 31, 3,6-Dimethyl-1-phenyl-1H-pyrazolo[3,4-b]pyridine-4-carboxylic acid (2-methyl-pyridin-3-yl)-amide], the melting point fell in the range of 208 to 209 °C. A half-maximal response on human α7 receptor (EC50) required 5.6 µM.
In the same order, the values of `Cc1cc(C(=O)Nc2cnccc2C)c2c(C)nn(-c3ccccc3)c2n1` [Compound 32, 3,6-Dimethyl-1-phenyl-1H-pyrazolo[3,4-b]pyridine-4-carboxylic acid (4-methyl-pyridin-3-yl)-amide] are 227 to 228 °C and 6.2 µM.
`Cc1cc(C(=O)Nc2c(C)ccnc2C)c2c(C)nn(-c3ccc(S(C)(=O)=O)cc3)c2n1` [Compound 34, 1-(4-Methanesulfonyl-phenyl)-3,6-dimethyl-1H-pyrazolo[3,4-b]pyridine-4-carboxylic acid (2,4-dimethyl-pyridin-3-yl)-amide]: at human α7 receptor, the EC50 is at least 20 µM. Besides, in the data set on α7 nACh receptors, the “Fold modulation, peak” value turned out to be 1.9 and the “Fold modulation, AUC” value was found to be 1.9.
On human α7 receptor, `COc1ccc(-n2nc(C)c3c(C(=O)Nc4c(C)ccnc4C)cc(-c4ccccc4)nc32)cc1` [Compound 35, 1-(4-Methoxy-phenyl)-3-methyl-6-phenyl-1H-pyrazolo[3,4-b]pyridine-4-carboxylic acid (2,4-dimethyl-pyridin-3-yl)-amide] yielded an EC50 of at least 20 µM. In the data set on α7 nACh receptors, the “Fold modulation, peak” value is reported as 14 and the “Fold modulation, AUC” value turned out to be 9.2.
For `COc1ccc(-n2nc(C)c3c(C(=O)Nc4cnccc4C#N)cc(C)nc32)cc1` [Compound 36, 1-(4-Methoxy-phenyl)-3,6-dimethyl-1H-pyrazolo[3,4-b]pyridine-4-carboxylic acid (4-cyano-pyridin-3-yl)-amide], at human α7 receptor, the EC50 is at least 20 µM. In addition, in the data set with α7 nACh receptors, the “Fold modulation, peak” value was 7.9 and the “Fold modulation, AUC” value was found to be 3.9.
